In ChEMBL document CHEMBL2331525, “Nudibaccatumone, a trimer comprising a phenylpropanoid and two sesquiterpene moieties from Piper nudibaccatum” (J Nat Prod, 2013) one finds Activity, IC50 and MIC data, which are given here for four compounds.

Activity calls are given as the source filed them.

Assay [1] deals with K562. Description: Cytotoxicity against human K562 cells at 100 uM by MTT assay. It is filed as functional, cell-based. (Tetrazolium dyes change colour on reduction, which living cells bring about.)
Assay [2] has as its system A549. Nature of the assay: Cytotoxicity against human A549 cells at 100 uM by SRB assay. In kind it is functional, cell-based. A general note: The SRB assay estimates cell density from bound dye.
Assay [3] deals with Escherichia coli. Nature of the assay: Antimicrobial activity against Escherichia coli at 100 uM by microdilution method. In kind it is functional, organism-based.
For assay [4], the system named is Staphylococcus aureus. Nature of the assay: Antimicrobial activity against Staphylococcus aureus at 100 uM by microdilution method. In kind it is functional, organism-based. A general note: Broth dilution looks for growth in wells or tubes with falling amounts of substance.
Assay [5] relates to Candida albicans. Nature of the assay: Antimicrobial activity against Candida albicans at 100 uM by microdilution method. In kind it is functional, organism-based.
Assay [6] deals with A549. Nature of the assay: Cytotoxicity against human A549 cells by SRB assay. In kind it is functional, cell-based.
The subject of assay [7] is K562. Description: Cytotoxicity against human K562 cells by MTT assay. It is filed as functional, cell-based.
In assay [8] the test system is Escherichia coli. Description: Antimicrobial activity against Escherichia coli by microdilution method. It is filed as functional, organism-based.
Assay [9] deals with Staphylococcus aureus. Nature of the assay: Antimicrobial activity against Staphylococcus aureus by microdilution method. In kind it is functional, organism-based.
In assay [10] the test system is Candida albicans. Nature of the assay: Antimicrobial activity against Candida albicans by microdilution method. It is filed as functional, organism-based.

As usually defined, the IC50 is the midpoint of a concentration-inhibition curve. As a reminder, the MIC is the smallest concentration in the dilution series that meets the test's criterion for growth inhibition. Read a low MIC as greater potency.

As to `C/C1=C\CC[C@]2(C)[C@@H]3C(=O)C(=O)[C@@H](C=C3/C=C/C[C@@]3(C)CC[C@H]4C3=C[C@H](C(C)(C)O)CC[C@H]4C)[C@H]2[C@H]2[C@H](CC1)C2(C)C`, the outcome in assay [1], in assay [2], in [3], in assay [4] and in [5] was inactive.

With `COc1cccc2c1C(=O)c1c(O)c3c(c(O)c1C2=O)C[C@@](O)(C(=O)CO)C[C@@H]3O[C@H]1C[C@H](N)[C@H](O)[C@H](C)O1` [DOXORUBICIN], the IC50 in [6] stood at 0.049 µM; in assay [7] it was 0.28 µM.

With GENTAMICIN, the MIC in assay [8] amounted to 1.2 µg/mL; in [9], 0.05 µg/mL.

NYSTATIN showed an MIC in assay [10] of 1 µg/mL.
